Laboratory results from patent publication US7351407B2, “Agents which regulate, inhibit, or modulate the activity and/or expression of connective tissue growth factor (CTGF) as a unique means to both lower intraocular pressure and treat glaucomatous retinopathies/optic neuropathies” (Alcon, Inc., priority 2002, dated 2008).

How the values were obtained:
CTGF gene expression = experiment: CTGF QPCR assay for inhibition of basal and TGFβ2-induced CTGF gene expression in cultured human TM cells; type: cell-based; conditions: for inhibition of basal CTGF gene expression (mRNA levels) / inhibition of TGFβ2-induced CTGF gene expression (mRNA levels): cultured human normal or glaucomatous TM cells, QPCR; for inhibition of TGFβ2-induced CTGF gene expression (mRNA levels): TGFβ2-stimulated; for inhibitory activity on CTGF expression: human TM cells, basal or TGFβ2-induced not specified
Text: FIG. 3. Effect of GSK-3 inhibition on CTGF gene expression in glaucomatous TM cells.
FIG. 4. Effect of CDK2 inhibition on CTGF gene expression in glaucomatous TM cells. To determine the effects of CDK inhibition on CTGF gene expression, we measured the effects of the known CDK2 inhibitor GW-8510 (Davis, et al. 2001) on both basal and TGFβ2-stimulated CTGF mRNA expression in a glaucomatous TM cell line (SGTM2697) using QPCR analysis.
The inventors have tested several different compound classes in a CTGF QPCR assay for inhibition of basal and TGFβ2-induced CTGF gene expression in cultured human normal or glaucomatous TM cells. Small molecule inhibitors were targeted at the inhibition of GSK-3, CDK, NAALADase, Protein Kinase C, MEK, p38MAPK, ROCK, VEGF, geranylgeranyl transferase and AGE. Small molecule agonists of PPAR, 5-HT, and P2X7 were also tested for activity. Compounds which target extracellular signal-regulated kinase 1 or 2 (ERK1 or ERK2) may also play a role in basal or TGFβ2-induced CTGF gene expression.
Total RNA was isolated from TM cells using Trizol® reagent according to the manufacturer's instructions (Life Technologies). First strand cDNA was generated from 1 ug of total RNA using random hexamers and TaqMan® Reverse Transcription reagents according to the manufacturer's instructions (PE Biosystems, Foster City, Calif.). The 100 ul reaction was subsequently diluted 20-fold to achieve an effective cDNA concentration of 0.5 ng/ul.
Differential expression of CTGF was verified by quantitative real-time RT-PCR (QPCR) using an ABI Prism® 7700 Sequence Detection System (Applied Biosystems). essentially as described (Shepard et al., IOVS 2001, 42:3173). Primers for CTGF amplification were designed using Primer Express software (Applied Biosystems) and anneal to adjacent exons of Genbank accession # NM_001901.1 ([…], nts 1667-1689 and […], nts 1723-1742) and generate a 76-bp amplicon. Amplification of CTGF was normalized to 18S ribosomal RNA expression using primers designed to the 18S rRNA gene (GenBank accession #X03205 […], nts 1680-1700 and […], nts 1730-1749) which generates a 69-bp amplicon. The SYBR® Green I double-stranded DNA binding dye chemistry (Applied Biosystems) was used to amplify CTGF or 18S cDNA. Specificity of the CTGF and 18S primer pairs was assessed from the PCR product by a combination of DNA sequencing, agarose gel analysis and dissociation curve analysis using the ABI Prism 770 SDS Dissociation Curve software (Applied Biosystems). CTGF or 18S rRNA reactions consisted of 1×SYBR Green PCR Master Mix (Applied Biosystems), 50 nM primer concentrations and 2.5 ng cDNA in a final volume of 50 ul. Thermal cycling conditions consisted of 50° C., 2 min, 95° C. 10 min followed by 40 cycles at 95° C., 15 sec, 60° C., 1 min. Quantification of relative RNA concentrations was done using the relative standard curve method as described in PE Biosystems User Bulletin #2 (http://docs.appliedbiosystems.com/pebiodocs/04303859.pdf). Data analysis was performed with SDS software version 1.9.1 (Applied Biosystems) and MS Excel 97 (Microsoft). Plasmid DNA containing target sequence for CTGF or 18S was used for generating the standard curve. QPCR data are presented as mean±SD.

CDK4 = CDK4 (Homo sapiens, UniProt P11802); conditions: cited from earlier work
CDK4, sequence (P11802 whole entry, species assumed): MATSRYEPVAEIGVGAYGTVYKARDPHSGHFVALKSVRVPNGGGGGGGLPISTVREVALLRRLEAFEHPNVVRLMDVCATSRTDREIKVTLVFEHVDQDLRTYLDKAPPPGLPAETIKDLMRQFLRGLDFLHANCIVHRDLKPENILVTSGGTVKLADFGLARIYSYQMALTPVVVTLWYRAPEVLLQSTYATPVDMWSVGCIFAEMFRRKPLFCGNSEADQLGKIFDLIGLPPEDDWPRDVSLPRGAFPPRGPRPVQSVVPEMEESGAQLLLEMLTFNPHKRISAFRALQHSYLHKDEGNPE
CDK4, sequence (P24385 whole entry partner, species assumed): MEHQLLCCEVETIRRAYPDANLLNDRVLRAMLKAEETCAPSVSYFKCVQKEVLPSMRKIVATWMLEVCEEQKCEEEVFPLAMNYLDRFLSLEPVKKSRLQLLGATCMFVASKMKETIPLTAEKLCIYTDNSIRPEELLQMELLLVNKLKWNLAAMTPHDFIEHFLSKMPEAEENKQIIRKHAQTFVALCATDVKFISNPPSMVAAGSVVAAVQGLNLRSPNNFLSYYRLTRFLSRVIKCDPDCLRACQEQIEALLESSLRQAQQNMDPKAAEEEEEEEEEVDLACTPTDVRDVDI

CDK1 = CDK1 (Homo sapiens, UniProt P06493); conditions: cited from earlier work
CDK1, sequence (P06493 whole entry, species assumed): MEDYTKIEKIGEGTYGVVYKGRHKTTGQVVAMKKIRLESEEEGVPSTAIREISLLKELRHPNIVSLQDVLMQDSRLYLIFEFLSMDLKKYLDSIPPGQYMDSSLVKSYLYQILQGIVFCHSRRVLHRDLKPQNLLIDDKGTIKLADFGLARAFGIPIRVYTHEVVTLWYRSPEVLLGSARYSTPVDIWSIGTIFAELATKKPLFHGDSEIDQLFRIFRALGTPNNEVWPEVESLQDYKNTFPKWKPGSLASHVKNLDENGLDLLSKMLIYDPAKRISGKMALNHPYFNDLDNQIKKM
CDK1, sequence (P14635 whole entry partner, species assumed): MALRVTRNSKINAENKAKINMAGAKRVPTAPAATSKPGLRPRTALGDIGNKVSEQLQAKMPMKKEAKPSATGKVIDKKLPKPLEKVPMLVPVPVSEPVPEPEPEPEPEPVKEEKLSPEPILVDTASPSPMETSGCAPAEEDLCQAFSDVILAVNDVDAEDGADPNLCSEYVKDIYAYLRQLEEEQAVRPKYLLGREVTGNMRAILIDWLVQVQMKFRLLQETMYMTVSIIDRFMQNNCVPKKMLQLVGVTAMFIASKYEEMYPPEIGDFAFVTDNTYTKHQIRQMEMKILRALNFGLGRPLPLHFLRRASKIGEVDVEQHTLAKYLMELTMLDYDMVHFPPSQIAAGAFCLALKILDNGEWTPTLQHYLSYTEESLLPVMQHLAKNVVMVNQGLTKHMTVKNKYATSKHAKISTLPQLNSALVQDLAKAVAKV

For `N#Cc1ccc2[nH]c3c(c2c1)CC(=O)Nc1ccccc1-3` [9-cyanopaullone], which “inhibition of basal CTGF gene expression (mRNA levels)” value (CTGF gene expression) is on record?
Its value is “inhibit basal”.

Which “inhibition of basal CTGF gene expression (mRNA levels)” value (CTGF gene expression) does the source give for `CCCCC[C@H](O)/C=C/C=C\C/C=C\C/C=C\CCCC(=O)O` [15(S)HETE] here?
The value was “inhibit basal”.

Which IC50 (CDK4) does the source give for `O=C1Nc2ccc3ncsc3c2/C1=C/Nc1ccc(S(=O)(=O)Nc2ccccn2)cc1` [GW-8510] here?
Its IC50 is 130 nM.

And the IC50 (CDK1)?
Its IC50 is 110 nM.

What about the “inhibition of TGFβ2-induced CTGF gene expression (mRNA levels)” value (CTGF gene expression) of the same compound?
The value was “inhibit”.

And the “inhibition of basal CTGF gene expression (mRNA levels)” value (CTGF gene expression)?
Its value is “inhibit”.

Which results are given for `Cn1cc(C2=C(c3ccc(Cl)cc3Cl)C(=O)NC2=O)c2ccccc21` [SB-216763]?
inhibition of TGFβ2-induced CTGF gene expression (mRNA levels) (CTGF gene expression): inhibit; inhibition of basal CTGF gene expression (mRNA levels) (CTGF gene expression): inhibit

For `O=C1Cc2c([nH]c3ccc([N+](=O)[O-])cc23)-c2ccccc2N1` [alsterpaullone], which “inhibition of basal CTGF gene expression (mRNA levels)” value (CTGF gene expression) is on record?
The value was “inhibit basal”.

With `O=C1Cc2c([nH]c3ccc(Br)cc23)-c2ccccc2N1` [kenpaullone] as the compound, how does the “inhibition of basal CTGF gene expression (mRNA levels)” value (CTGF gene expression) read?
Its value is “inhibit basal”.

For `CC(C)[C@H](CO)Nc1nc(Nc2cccc(Cl)c2)c2ncn(C(C)C)c2n1` [purvalanol A], which “inhibitory activity on CTGF expression” value (CTGF gene expression) is on record?
Its value is “inhibitory activity”.

Which “inhibitory activity on CTGF expression” value (CTGF gene expression) does the source give for `CC[C@H](CO)Nc1nc(NCc2ccccc2)c2ncn(C(C)C)c2n1` [roscovitine] here?
The value was “inhibitory activity”.
